These results are taken from ChEMBL document CHEMBL3414466, “Synthesis and anticancer activity of N-substituted 2-arylquinazolinones bearing trans-stilbene scaffold” (Eur J Med Chem, 2015).

Test [1] relates to MCF7. The test can be described thus: Cytotoxicity against human MCF7 cells by MTT assay. Format: functional, cell-based. (Tetrazolium dyes change colour on reduction, which living cells bring about.)
For test [2], the system named is MDA-MB-231. Briefly: Cytotoxicity against human MDA-MB-231 cells by MTT assay. Type of test: functional, cell-based.
Test [3] has as its system T47D. The test can be described thus: Cytotoxicity against human T47D cells by MTT assay. Format: functional, cell-based.
Test [4] has as its system MDA-MB-231. Briefly: Induction of apoptosis in human MDA-MB-231 cells assessed as early apoptotic cells at IC50 after 12 hrs by annexin V-FITC/propidium iodide staining-based flow cytometric analysis (reference value: 3.82%). Format: functional. In general terms: Flow cytometry measures light scatter and fluorescence of single cells or particles in a stream.
The subject of test [5] is MDA-MB-231. Briefly: Induction of apoptosis in human MDA-MB-231 cells assessed as late apoptotic cells at IC50 after 12 hrs by annexin V-FITC/propidium iodide staining-based flow cytometric analysis (reference value: 0.01%). Format: functional.
Test [6] has as its system MDA-MB-231. The test can be described thus: Induction of apoptosis in human MDA-MB-231 cells assessed as necrotic cells at IC50 after 12 hrs by annexin V-FITC/propidium iodide staining-based flow cytometric analysis (reference value: 0.97%). Format: functional.
The subject of test [7] is MDA-MB-231. Briefly: Induction of apoptosis in human MDA-MB-231 cells assessed as viable cells at IC50 after 12 hrs by annexin V-FITC/propidium iodide staining-based flow cytometric analysis (reference value: 95.2%). Format: functional.
Test [8] has as its system MCF7. Briefly: Induction of apoptosis in human MCF7 cells assessed as early apoptotic cells at IC50 after 12 hrs by annexin V-FITC/propidium iodide staining-based flow cytometric analysis (reference value: 2.49%). Format: functional.
The test system of test [9] is MCF7. The test can be described thus: Induction of apoptosis in human MCF7 cells assessed as late apoptotic cells at IC50 after 12 hrs by annexin V-FITC/propidium iodide staining-based flow cytometric analysis relative to control. Type of test: functional.
Test [10] relates to MCF7. Briefly: Induction of apoptosis in human MCF7 cells assessed as necrotic cells at IC50 after 12 hrs by annexin V-FITC/propidium iodide staining-based flow cytometric analysis (reference value: 0.29%). Format: functional.
For test [11], the system named is MCF7. The test can be described thus: Induction of apoptosis in human MCF7 cells assessed as viable cells at IC50 after 12 hrs by annexin V-FITC/propidium iodide staining-based flow cytometric analysis (reference value: 97.23%). Format: functional.
Test [12] relates to MCF7. Briefly: Potency index, ratio of etoposide IC50 to compound IC50 for human MCF7 cells. Type of test: functional.
Test [13] relates to MDA-MB-231. Briefly: Potency index, ratio of etoposide IC50 to compound IC50 for human MDA-MB-231 cells. Format: functional.
In test [14] the test system is T47D. The test can be described thus: Potency index, ratio of etoposide IC50 to compound IC50 for human T47D cells. Format: functional.
Test [15] has as its system MCF7. Briefly: Induction of apoptosis in human MCF7 cells assessed as change in morphology at IC50 after 24 hrs by acridine orange/ethidium bromide staining-based fluorescence microscopic analysis. Format: functional, cell-based.
Test [16] deals with MDA-MB-231. The test can be described thus: Induction of apoptosis in human MDA-MB-231 cells assessed as change in morphology at IC50 after 24 hrs by acridine orange/ethidium bromide staining-based fluorescence microscopic analysis. Type of test: functional, cell-based.

Activity calls are given as the source filed them. The rule behind the calls is not given here.

The IC50 is the concentration needed to halve the response being measured. A higher IC50 goes with weaker potency in that assay. For `CC(C)n1c(-c2ccccc2/C=C/c2ccccc2)nc2ccccc2c1=O`, the IC50 came to 6.7 µM with MCF7 [1], 8.4 µM in the test with MDA-MB-231 [2] and 6.2 µM in the test with T47D [3].

Turning to `CC(C)Cn1c(-c2ccccc2/C=C/c2ccccc2)nc2ccccc2c1=O`, the IC50 came to 23.3 µM in the test on MCF7 [1], 6.9 µM in the test with MDA-MB-231 [2] and 9.3 µM in the test on T47D [3].

Take `O=c1c2ccccc2nc(-c2ccccc2/C=C/c2ccccc2)n1-c1ccccc1`: the IC50 with MCF7 [1] is 44.9 µM; with MDA-MB-231 [2], above 100 µM; in the test with T47D [3], above 100 µM.

As for `C=CCn1c(-c2ccccc2/C=C/c2ccccc2)nc2ccccc2c1=O`, the IC50 was 10.3 µM in the test with MCF7 [1], 4.1 µM with MDA-MB-231 [2] and 5.8 µM in the test with T47D [3].

For `COc1cc([C@@H]2c3cc4c(cc3[C@@H](O[C@@H]3O[C@@H]5CO[C@@H](C)O[C@H]5[C@H](O)[C@H]3O)[C@H]3COC(=O)[C@H]23)OCO4)cc(OC)c1O` [ETOPOSIDE], the IC50 in the test on MDA-MB-231 [2] is 10.3 µM; in the test on T47D [3], 8.9 µM. Moreover, the Activity with MDA-MB-231 [4] came out at 22.41%; in the test on MDA-MB-231 [5] it was 0.8%; with MDA-MB-231 [6] it was 0.27%; in the test with MDA-MB-231 [7], 76.53%; in the test on MCF7 [8], 36.92%; in the test on MCF7 [9], 0.08%. For the same compound, the Activity is on record as 0.1% in the test with MCF7 [10] and 62.89% in the test on MCF7 [11].

Take `CCCCn1c(-c2ccccc2/C=C/c2ccccc2)nc2ccccc2c1=O`: the IC50 with MCF7 [1] amounted to 9.8 µM; in the test with MDA-MB-231 [2], 4 µM; with T47D [3] it was 7.9 µM.

For `CCCn1c(-c2ccccc2/C=C/c2ccccc2)nc2ccccc2c1=O`, the IC50 in the test on MCF7 [1] was 29.4 µM; in the test with MDA-MB-231 [2], above 100 µM; with T47D [3], above 100 µM.

Turning to `O=c1c2ccccc2nc(-c2ccccc2/C=C/c2ccccc2)n1Cc1ccccc1`, the IC50 in the test on MCF7 [1], in the test with MDA-MB-231 [2] and with T47D [3] was above 100 µM in each case.

With `COc1ccc(Cn2c(-c3ccccc3/C=C/c3ccccc3)nc3ccccc3c2=O)cc1`, the IC50 with MCF7 [1], with MDA-MB-231 [2] and with T47D [3] was above 100 µM throughout.

For the compound `CCC(C)n1c(-c2ccccc2/C=C/c2ccccc2)nc2ccccc2c1=O` (stereo not drawn), the IC50 in the test on MCF7 [1] turned out to be 3.8 µM; in the test with MDA-MB-231 [2], 4.9 µM; with T47D [3], 3.6 µM. Moreover, the “Ratio IC50” value with MCF7 [12], in the test with MDA-MB-231 [13] and in the test on T47D [14] was 2 in each case. Also, the result in the test on MCF7 [15] and in the test on MDA-MB-231 [16] was Active. For the same compound, the Activity in the test on MDA-MB-231 [4] is listed as 16.55%; with MDA-MB-231 [5], 2.27%; in the test with MDA-MB-231 [6] it was 0.97%; in the test on MDA-MB-231 [7], 80.2%; with MCF7 [8] it was 26.45%; with MCF7 [9], 1.95%. Besides, the values for the Activity with MCF7 [10] and in the test on MCF7 [11] were 2.14% and 69.46%, respectively.

Consider `O=c1c2ccccc2nc(-c2ccccc2/C=C/c2ccccc2)n1C1CC1`, for which the concentration for half-maximal inhibition (IC50) with MCF7 [1] amounted to 5.3 µM; in the test on MDA-MB-231 [2] it was 5.5 µM; in the test on T47D [3] it was 6.8 µM. In addition, the outcome in the test with MCF7 [15] and with MDA-MB-231 [16] was Active. In addition, the Activity with MDA-MB-231 [4] is 22.41%; with MDA-MB-231 [5], 3.09%; with MDA-MB-231 [6], 4.37%; in the test on MDA-MB-231 [7], 70.13%; in the test on MCF7 [8] it was 25.88%; with MCF7 [9] it was 0.77%. In addition, the figures for the Activity in the test with MCF7 [10] and with MCF7 [11] were 0.59% and 72.75%, respectively.

For `Cc1ccc(-n2c(-c3ccccc3/C=C/c3ccccc3)nc3ccccc3c2=O)cc1`, the IC50 in the test with MCF7 [1], in the test on MDA-MB-231 [2] and in the test with T47D [3] was above 100 µM each time.

Regarding `O=c1c2ccccc2nc(-c2ccccc2/C=C/c2ccccc2)n1C1CCCC1`, the half-inhibitory concentration (IC50) in the test on MCF7 [1], in the test on MDA-MB-231 [2] and in the test on T47D [3] was above 100 µM throughout.

Consider `Cc1ccc(Cn2c(-c3ccccc3/C=C/c3ccccc3)nc3ccccc3c2=O)cc1`, for which the values for the IC50 in the test with MCF7 [1], in the test with MDA-MB-231 [2] and in the test with T47D [3] were 24.7 µM, 23.8 µM and 28.2 µM, respectively.

For `CCn1c(-c2ccccc2/C=C/c2ccccc2)nc2ccccc2c1=O`, the 50% inhibitory concentration (IC50) in the test with MCF7 [1] was 8.7 µM; with MDA-MB-231 [2], 8.4 µM; with T47D [3], 10.2 µM.

In the case of `COc1ccc(-n2c(-c3ccccc3/C=C/c3ccccc3)nc3ccccc3c2=O)cc1`, the IC50 in the test on MCF7 [1], with MDA-MB-231 [2] and with T47D [3] was above 100 µM in each case.
